Measurements published in the NIST ThermoML archive (doi:10.1016/j.jct.2013.01.017).
± gives the expanded uncertainty stated by the source.

Conditions: Liquid, Closed cell (Static) method

C=CCC [1-butene]
Conditions | vapor or sublimation pressure [kPa]
302.9 K | 343 ± 14
307.83 K | 396 ± 14
312.96 K | 456 ± 14
318.05 K | 521 ± 14
322.94 K | 593 ± 14
328.06 K | 671 ± 14
332.97 K | 759 ± 14
337.99 K | 855 ± 14
342.98 K | 957 ± 14
347.93 K | 1069 ± 14
353.18 K | 1197 ± 14

FC(F)(F)C1(F)OC1(F)F (centres undefined) [2,2,3-trifluoro-3-(trifluoromethyl)oxirane]
Conditions | vapor or sublimation pressure [kPa]
302.95 K | 786 ± 14
307.93 K | 896 ± 14
312.93 K | 1015 ± 14
317.86 K | 1150 ± 14
322.92 K | 1298 ± 14
327.88 K | 1474 ± 14
332.87 K | 1658 ± 14
337.87 K | 1864 ± 15
342.88 K | 2075 ± 15
347.85 K | 2313 ± 15

FCF [difluoromethane]
Conditions | vapor or sublimation pressure [kPa]
280.59 K | 1022 ± 14
283.05 K | 1109 ± 14
285.52 K | 1195 ± 14
288.02 K | 1280 ± 14
290.46 K | 1364 ± 14
293.02 K | 1474 ± 14
295.49 K | 1578 ± 14
298.01 K | 1684 ± 14
300.48 K | 1793 ± 15
302.94 K | 1918 ± 15
305.46 K | 2051 ± 15
307.91 K | 2179 ± 15
310.48 K | 2318 ± 15
312.9 K | 2459 ± 15
315.43 K | 2614 ± 15
317.89 K | 2772 ± 15
320.41 K | 2948 ± 15
322.92 K | 3120 ± 15
325.42 K | 3303 ± 15
327.9 K | 3498 ± 16
330.35 K | 3694 ± 16
332.91 K | 3910 ± 16
335.4 K | 4138 ± 16
337.93 K | 4370 ± 16
340.43 K | 4602 ± 17
342.88 K | 4854 ± 17
345.4 K | 5117 ± 17
347.89 K | 5392 ± 17
